Experimental findings from PubChem BioAssay (NCI) are described below.

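Following 48 hours of exposure in 96-well plates, responses at five concentrations were used to interpolate endpoints linearly. TGI denotes the concentration required for complete inhibition of growth.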 Where only a bound is given, the exact number is not on record here.

Some test systems named below: 786-0 renal; A498 renal; A549 NSCLC; ACHN renal; HCC-2998 colon; HCT-116 colon; HCT-15 colon; KM12 colon; MOLT-4 leukemia; NCI-H23 lung; OVCAR-4 ovarian; SF-268 CNS; SK-MEL-2 melanoma; SK-MEL-5 melanoma; SNB-75 CNS; UO-31 renal; NCI-H226 lung.
Assay in all cases: NCI-60 cell line screen, 48 h

Take `CC(=O)Oc1ccc2c(c1)Oc1cc(C(C)=O)ccc1C21OC(=O)c2ccccc21` (centres undefined): the TGI in the test on 786-0 renal, in the test on A498 renal, in the test on A549 NSCLC, in the test with ACHN renal, in the test with HCC-2998 colon and in the test with HCT-116 colon was > 100 µM in each case. Moreover, the TGI in the test on HCT-15 colon, in the test on KM12 colon, in the test with MOLT-4 leukemia, in the test on NCI-H23 lung, with OVCAR-4 ovarian and in the test with SF-268 CNS was > 100 µM each time. The TGI in the test with SK-MEL-2 melanoma, in the test with SK-MEL-5 melanoma, with SNB-75 CNS and in the test on UO-31 renal was > 100 µM in each case.
Turning to `CSC1=C(C(=O)Nc2ccc(Cl)cc2)C(N)=NC1=O`, the TGI in the test with 786-0 renal, in the test on A498 renal, in the test with A549 NSCLC, in the test with HCC-2998 colon, with HCT-116 colon and with HCT-15 colon was > 100 µM in each case. Besides, the TGI with KM12 colon, in the test with MOLT-4 leukemia, with NCI-H226 lung, with NCI-H23 lung, in the test with OVCAR-4 ovarian and with SF-268 CNS was > 100 µM in each case. For the same molecule, the TGI in the test on SK-MEL-2 melanoma, in the test on SK-MEL-5 melanoma, with SNB-75 CNS and in the test on UO-31 renal was > 100 µM throughout.
Consider `CCOC(=O)c1cc2c(ccc3cc(C(=O)OCC)[nH]c32)[nH]1`, for which the TGI is 31.3 µM in the test with 786-0 renal; > 100 µM with A498 renal; > 100 µM in the test on A549 NSCLC; > 100 µM with ACHN renal; > 100 µM in the test with HCC-2998 colon; > 100 µM in the test with HCT-116 colon. Further, the TGI with HCT-15 colon is > 100 µM; in the test on KM12 colon, > 100 µM; with MOLT-4 leukemia, > 100 µM; in the test with NCI-H23 lung, > 100 µM; with OVCAR-4 ovarian it was 32.4 µM; with SF-268 CNS, > 100 µM. Besides, the TGI is > 100 µM in the test with SK-MEL-2 melanoma, 98.4 µM in the test with SK-MEL-5 melanoma, 41.8 µM with SNB-75 CNS and > 100 µM in the test with UO-31 renal.
For `O=C(O)/C=C/n1c2ccccc2c(=O)c2ccccc21`, the TGI in the test on 786-0 renal, in the test with A498 renal, with A549 NSCLC, in the test with ACHN renal, in the test with HCC-2998 colon and in the test on HCT-116 colon was > 100 µM each time. Moreover, the TGI in the test on HCT-15 colon, with KM12 colon, in the test on MOLT-4 leukemia, with NCI-H226 lung, in the test on NCI-H23 lung and with OVCAR-4 ovarian was > 100 µM in each case. Moreover, the TGI in the test on SF-268 CNS, in the test with SK-MEL-2 melanoma and in the test on UO-31 renal was > 100 µM in each case.
In the case of `CCOP(C)(=O)C(Cc1c[nH]c2ccccc12)C(=O)O` (centres undefined), the TGI with 786-0 renal, in the test on A498 renal, in the test with A549 NSCLC, in the test with ACHN renal, in the test with HCC-2998 colon and in the test with HCT-116 colon was > 100 µM in each case. The TGI in the test on HCT-15 colon, in the test with KM12 colon, with MOLT-4 leukemia, with SF-268 CNS, in the test with SK-MEL-2 melanoma and with SK-MEL-5 melanoma was > 100 µM each time. Moreover, the TGI in the test with SNB-75 CNS and in the test on UO-31 renal was > 100 µM throughout.
In the case of `COc1ccc(CN2C[C@H]3[C@@H](CC(=O)O[C@H]3C)CC2=O)cc1`, the TGI in the test on 786-0 renal, with A498 renal, in the test with A549 NSCLC, in the test with ACHN renal, in the test with HCC-2998 colon and with HCT-116 colon was > 100 µM in each case. In addition, the TGI in the test on HCT-15 colon, with KM12 colon, with MOLT-4 leukemia, with NCI-H23 lung, in the test on OVCAR-4 ovarian and with SF-268 CNS was > 100 µM throughout. In addition, the TGI in the test with SK-MEL-2 melanoma, with SK-MEL-5 melanoma, in the test with SNB-75 CNS and in the test with UO-31 renal was > 100 µM each time.
Consider `CC1=NN(c2cccc(Cl)c2)C2(SCC(=O)N2c2nc3ccccc3s2)/C1=C\c1ccc(Cl)cc1` (centres undefined), for which the TGI with 786-0 renal is 48.1 µM; with A498 renal it was 40.2 µM; in the test on ACHN renal it was 46.4 µM; in the test on HCC-2998 colon, 27.5 µM; with HCT-116 colon, 31.3 µM; in the test with HCT-15 colon it was 38.1 µM. The TGI with KM12 colon is 34.8 µM; with MOLT-4 leukemia, 20.8 µM; with NCI-H226 lung, 75.1 µM; in the test on NCI-H23 lung, 41.5 µM; in the test on OVCAR-4 ovarian it was 55.1 µM; in the test with SF-268 CNS, 46.2 µM. Further, the TGI in the test with SK-MEL-2 melanoma was found to be 35.7 µM; in the test with SK-MEL-5 melanoma, 30.8 µM; in the test with UO-31 renal it was 29.5 µM.
On to `N#Cc1ccc(Oc2nc3ccccc3nc2-c2ccccc2)cc1`, for which the TGI in the test with 786-0 renal, in the test with A498 renal, with ACHN renal, in the test with HCC-2998 colon, in the test with HCT-116 colon and with HCT-15 colon was > 100 µM in each case. In addition, the TGI with KM12 colon, in the test with MOLT-4 leukemia, with NCI-H226 lung, in the test with NCI-H23 lung, in the test on OVCAR-4 ovarian and in the test on SF-268 CNS was > 100 µM each time. The TGI with SK-MEL-2 melanoma, in the test with SK-MEL-5 melanoma and in the test with UO-31 renal was > 100 µM throughout.
Take `CC(=O)OC1CCN(C(=O)c2ccccc2)CC1CC1(c2cc3ccccc3[nH]2)OCCO1` (centres undefined): the TGI in the test with 786-0 renal is > 100 µM; in the test with A498 renal, 96.2 µM; in the test with A549 NSCLC, > 100 µM; in the test on ACHN renal, > 100 µM; with HCC-2998 colon it was > 100 µM; with HCT-116 colon, > 100 µM. Also, the TGI in the test with HCT-15 colon was > 100 µM; in the test with KM12 colon it was > 100 µM; with MOLT-4 leukemia, 75 µM; in the test on NCI-H226 lung, > 100 µM; in the test on NCI-H23 lung, > 100 µM; with OVCAR-4 ovarian, > 100 µM. The TGI in the test with SK-MEL-2 melanoma, in the test on SK-MEL-5 melanoma, with SNB-75 CNS and in the test on UO-31 renal was > 100 µM each time.
